Laboratory results from publication PMC6757289, “Design and Characterization of SGK3-PROTAC1, an Isoform Specific SGK3 Kinase PROTAC Degrader” (ACS Chemical Biology, 2019).
Read-outs that look alike come from different tables or passages of the source.

Columns and labels:
Assay in all cases: kinase profiling panel
Assay type in all cases: biochemical
RIPK2 = RIPK2 (Homo sapiens, UniProt O43353); conditions: read-out: % Activity Remaining
Excerpt: (§1) Protein kinase profiling against a Dundee panel of 140 protein kinases was undertaken at the International Centre for Protein Kinase Profiling. The result for each kinase was presented as a mean kinase activity of the reaction taken in triplicate relative to a control sample treated with DMSO. Assay conditions and abbreviations are available at http://www.kinase-screen.mrc.ac.uk.

ZAP70 = target: T1, ZAP70 (Homo sapiens, UniProt P43403); conditions: read-out: % Activity Remaining
T1 sequence (P43403 1-619): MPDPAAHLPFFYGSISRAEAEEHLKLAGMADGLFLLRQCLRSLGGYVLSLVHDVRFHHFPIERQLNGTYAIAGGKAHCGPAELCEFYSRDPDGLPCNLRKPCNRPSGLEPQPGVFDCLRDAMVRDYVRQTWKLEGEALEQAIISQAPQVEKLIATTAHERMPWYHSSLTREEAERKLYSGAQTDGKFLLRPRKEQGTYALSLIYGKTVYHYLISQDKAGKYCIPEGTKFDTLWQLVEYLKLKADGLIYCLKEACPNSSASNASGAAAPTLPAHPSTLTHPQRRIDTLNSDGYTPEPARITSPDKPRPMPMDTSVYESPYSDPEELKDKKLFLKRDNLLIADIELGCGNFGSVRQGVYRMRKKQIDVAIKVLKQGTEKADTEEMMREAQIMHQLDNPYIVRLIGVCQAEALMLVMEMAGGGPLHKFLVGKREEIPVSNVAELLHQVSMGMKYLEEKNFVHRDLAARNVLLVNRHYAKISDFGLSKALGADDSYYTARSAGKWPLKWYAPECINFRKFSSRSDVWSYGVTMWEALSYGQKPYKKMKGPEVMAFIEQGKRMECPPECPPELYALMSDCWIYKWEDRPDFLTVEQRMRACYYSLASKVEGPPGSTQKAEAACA
Excerpt: as §1

PINK = target: T2, PINK (Tribolium castaneum, UniProt D6WMX4)
T2 sequence (D6WMX4 1-570): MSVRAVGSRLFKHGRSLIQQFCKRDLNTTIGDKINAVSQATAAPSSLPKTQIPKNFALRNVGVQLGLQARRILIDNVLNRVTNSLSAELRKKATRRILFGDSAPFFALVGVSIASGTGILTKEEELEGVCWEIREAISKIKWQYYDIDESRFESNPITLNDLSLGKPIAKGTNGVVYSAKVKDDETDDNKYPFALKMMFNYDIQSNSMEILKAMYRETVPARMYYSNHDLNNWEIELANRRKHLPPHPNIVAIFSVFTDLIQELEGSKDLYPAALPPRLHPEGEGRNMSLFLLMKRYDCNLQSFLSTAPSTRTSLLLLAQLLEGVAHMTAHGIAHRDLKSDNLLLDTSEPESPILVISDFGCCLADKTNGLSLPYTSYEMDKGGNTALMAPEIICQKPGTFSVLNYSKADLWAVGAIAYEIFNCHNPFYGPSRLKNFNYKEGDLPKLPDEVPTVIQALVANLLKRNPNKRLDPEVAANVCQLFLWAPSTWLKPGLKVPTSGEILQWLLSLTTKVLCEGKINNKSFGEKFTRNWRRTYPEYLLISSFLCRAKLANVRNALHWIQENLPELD
Excerpt: as §1

Aurora B = Aurora B (Homo sapiens, UniProt Q96GD4); conditions: read-out: % Activity Remaining
Aurora B, sequence (Q96GD4 whole entry): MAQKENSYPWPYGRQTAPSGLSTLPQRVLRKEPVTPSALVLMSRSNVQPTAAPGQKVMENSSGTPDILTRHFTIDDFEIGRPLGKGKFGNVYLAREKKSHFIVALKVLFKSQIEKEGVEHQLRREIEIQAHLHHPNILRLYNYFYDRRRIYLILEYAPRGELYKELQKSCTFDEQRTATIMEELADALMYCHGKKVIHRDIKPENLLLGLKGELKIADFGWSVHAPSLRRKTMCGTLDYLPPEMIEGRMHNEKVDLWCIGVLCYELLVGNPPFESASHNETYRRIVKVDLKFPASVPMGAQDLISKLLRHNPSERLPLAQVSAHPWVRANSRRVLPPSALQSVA
Excerpt: as §1

MNK2 = MNK2 (Homo sapiens, UniProt Q9HBH9); conditions: read-out: % Activity Remaining
MNK2, sequence (Q9HBH9 whole entry): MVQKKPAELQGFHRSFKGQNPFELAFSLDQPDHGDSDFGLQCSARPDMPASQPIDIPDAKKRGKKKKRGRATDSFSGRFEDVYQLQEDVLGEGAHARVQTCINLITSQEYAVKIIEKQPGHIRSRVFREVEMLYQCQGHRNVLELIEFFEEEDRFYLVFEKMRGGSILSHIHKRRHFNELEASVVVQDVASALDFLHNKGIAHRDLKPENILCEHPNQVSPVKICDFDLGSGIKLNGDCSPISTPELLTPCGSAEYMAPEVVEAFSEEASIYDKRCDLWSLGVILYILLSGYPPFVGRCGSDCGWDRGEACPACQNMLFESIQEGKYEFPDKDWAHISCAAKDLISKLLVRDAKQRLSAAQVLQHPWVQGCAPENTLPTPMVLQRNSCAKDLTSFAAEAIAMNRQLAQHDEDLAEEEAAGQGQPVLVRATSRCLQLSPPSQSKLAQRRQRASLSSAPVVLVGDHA
Excerpt: as §1

FGF-R1 = FGF-R1 (Homo sapiens, UniProt P11362); conditions: read-out: % Activity Remaining
FGF-R1, sequence (P11362 22-822): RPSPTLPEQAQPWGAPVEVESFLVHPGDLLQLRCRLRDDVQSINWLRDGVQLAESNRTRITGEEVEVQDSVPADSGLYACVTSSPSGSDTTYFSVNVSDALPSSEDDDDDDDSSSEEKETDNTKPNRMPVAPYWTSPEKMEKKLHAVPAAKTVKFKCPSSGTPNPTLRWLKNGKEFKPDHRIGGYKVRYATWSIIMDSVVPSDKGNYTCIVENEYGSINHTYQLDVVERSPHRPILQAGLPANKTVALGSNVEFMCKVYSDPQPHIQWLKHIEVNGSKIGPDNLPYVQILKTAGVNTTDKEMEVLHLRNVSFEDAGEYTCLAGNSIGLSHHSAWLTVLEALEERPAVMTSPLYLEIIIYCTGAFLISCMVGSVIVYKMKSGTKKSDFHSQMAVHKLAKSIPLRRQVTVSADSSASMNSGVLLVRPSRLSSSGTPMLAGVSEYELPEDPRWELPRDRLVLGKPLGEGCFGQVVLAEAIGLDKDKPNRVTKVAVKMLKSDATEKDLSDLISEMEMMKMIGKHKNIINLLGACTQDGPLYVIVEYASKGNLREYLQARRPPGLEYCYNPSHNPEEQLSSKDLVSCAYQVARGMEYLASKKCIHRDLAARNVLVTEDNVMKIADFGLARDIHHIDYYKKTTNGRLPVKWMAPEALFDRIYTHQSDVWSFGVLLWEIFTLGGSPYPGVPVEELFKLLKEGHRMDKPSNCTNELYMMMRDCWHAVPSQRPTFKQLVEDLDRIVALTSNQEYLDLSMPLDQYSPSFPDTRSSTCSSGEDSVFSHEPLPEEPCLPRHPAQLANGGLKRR
Excerpt: as §1

TGFBR1 = target: T3, TGFBR1 (Homo sapiens, UniProt P36897); conditions: read-out: % Activity Remaining
T3 sequence (P36897 34-503): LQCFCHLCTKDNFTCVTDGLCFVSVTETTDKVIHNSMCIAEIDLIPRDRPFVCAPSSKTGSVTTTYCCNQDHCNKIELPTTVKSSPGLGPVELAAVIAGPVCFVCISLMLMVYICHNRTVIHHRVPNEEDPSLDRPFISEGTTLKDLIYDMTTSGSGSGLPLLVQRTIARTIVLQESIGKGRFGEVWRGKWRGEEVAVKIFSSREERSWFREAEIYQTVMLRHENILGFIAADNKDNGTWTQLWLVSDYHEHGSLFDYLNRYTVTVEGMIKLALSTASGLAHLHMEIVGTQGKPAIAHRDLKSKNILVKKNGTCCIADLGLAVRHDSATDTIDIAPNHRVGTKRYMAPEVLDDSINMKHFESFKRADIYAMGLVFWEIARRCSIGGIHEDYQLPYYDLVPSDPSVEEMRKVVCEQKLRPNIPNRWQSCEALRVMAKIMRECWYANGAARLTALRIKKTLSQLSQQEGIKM
Excerpt: as §1

MKK2 = MKK2 (Homo sapiens, UniProt P36507); conditions: read-out: % Activity Remaining
Excerpt: as §1

CK2 = CK2 (Homo sapiens, UniProt P68400); conditions: read-out: % Activity Remaining
CK2, sequence (P68400 whole entry): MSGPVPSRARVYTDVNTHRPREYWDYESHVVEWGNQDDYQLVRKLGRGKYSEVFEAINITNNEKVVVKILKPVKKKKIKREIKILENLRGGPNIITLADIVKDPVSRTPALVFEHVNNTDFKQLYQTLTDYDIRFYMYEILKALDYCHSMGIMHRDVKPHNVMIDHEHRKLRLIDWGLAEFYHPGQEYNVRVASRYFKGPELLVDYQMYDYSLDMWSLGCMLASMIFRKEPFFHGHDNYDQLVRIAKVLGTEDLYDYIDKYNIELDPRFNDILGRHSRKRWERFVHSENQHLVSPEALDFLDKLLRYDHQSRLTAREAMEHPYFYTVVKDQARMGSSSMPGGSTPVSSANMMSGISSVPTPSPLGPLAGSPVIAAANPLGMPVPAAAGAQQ
Excerpt: as §1

MPSK1 = MPSK1 (Homo sapiens, UniProt O75716); conditions: read-out: % Activity Remaining
Excerpt: as §1

MLK1 = MLK1 (Homo sapiens, UniProt P80192); conditions: read-out: % Activity Remaining
MLK1, sequence (P80192 whole entry): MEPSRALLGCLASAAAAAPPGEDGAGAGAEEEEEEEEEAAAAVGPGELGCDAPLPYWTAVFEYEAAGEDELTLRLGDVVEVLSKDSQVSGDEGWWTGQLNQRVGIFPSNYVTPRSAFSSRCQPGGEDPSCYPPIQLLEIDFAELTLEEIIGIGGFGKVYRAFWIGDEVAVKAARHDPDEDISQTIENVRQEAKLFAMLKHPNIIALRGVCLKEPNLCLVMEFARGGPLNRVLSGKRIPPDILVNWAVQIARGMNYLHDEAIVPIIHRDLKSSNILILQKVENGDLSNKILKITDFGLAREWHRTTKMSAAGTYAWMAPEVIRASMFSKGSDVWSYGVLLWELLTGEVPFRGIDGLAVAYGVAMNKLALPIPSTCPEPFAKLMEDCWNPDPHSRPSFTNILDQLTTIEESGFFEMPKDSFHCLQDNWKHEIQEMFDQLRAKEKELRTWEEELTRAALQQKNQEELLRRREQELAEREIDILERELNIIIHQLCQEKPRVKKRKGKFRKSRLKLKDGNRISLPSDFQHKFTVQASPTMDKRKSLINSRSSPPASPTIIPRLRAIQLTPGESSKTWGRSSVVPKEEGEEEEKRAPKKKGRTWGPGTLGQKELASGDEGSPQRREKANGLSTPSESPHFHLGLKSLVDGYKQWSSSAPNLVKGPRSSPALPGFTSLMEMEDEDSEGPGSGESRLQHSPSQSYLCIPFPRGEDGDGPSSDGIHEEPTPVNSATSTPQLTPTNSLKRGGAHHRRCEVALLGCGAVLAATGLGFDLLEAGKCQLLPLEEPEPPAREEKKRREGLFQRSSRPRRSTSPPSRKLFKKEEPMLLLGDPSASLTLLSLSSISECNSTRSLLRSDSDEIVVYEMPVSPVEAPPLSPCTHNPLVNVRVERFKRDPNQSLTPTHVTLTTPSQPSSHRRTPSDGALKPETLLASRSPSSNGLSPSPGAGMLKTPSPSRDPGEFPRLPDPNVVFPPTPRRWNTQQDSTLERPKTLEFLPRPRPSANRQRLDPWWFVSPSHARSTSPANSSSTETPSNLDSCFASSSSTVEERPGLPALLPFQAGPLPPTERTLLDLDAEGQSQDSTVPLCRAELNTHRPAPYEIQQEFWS
Excerpt: as §1

YES1 = YES1 (Homo sapiens, UniProt P07947); conditions: read-out: % Activity Remaining
Excerpt: as §1

TESK1 = TESK1 (Homo sapiens, UniProt Q15569); conditions: read-out: % Activity Remaining
Excerpt: as §1

MAP4K5 = MAP4K5 (Homo sapiens, UniProt Q9Y4K4); conditions: read-out: % Activity Remaining
Excerpt: as §1

CLK2 = CLK2 (Homo sapiens, UniProt P49760); conditions: read-out: % Activity Remaining
Excerpt: as §1

DAPK1 = DAPK1 (Homo sapiens, UniProt P53355); conditions: read-out: % Activity Remaining
DAPK1, sequence (P53355 whole entry): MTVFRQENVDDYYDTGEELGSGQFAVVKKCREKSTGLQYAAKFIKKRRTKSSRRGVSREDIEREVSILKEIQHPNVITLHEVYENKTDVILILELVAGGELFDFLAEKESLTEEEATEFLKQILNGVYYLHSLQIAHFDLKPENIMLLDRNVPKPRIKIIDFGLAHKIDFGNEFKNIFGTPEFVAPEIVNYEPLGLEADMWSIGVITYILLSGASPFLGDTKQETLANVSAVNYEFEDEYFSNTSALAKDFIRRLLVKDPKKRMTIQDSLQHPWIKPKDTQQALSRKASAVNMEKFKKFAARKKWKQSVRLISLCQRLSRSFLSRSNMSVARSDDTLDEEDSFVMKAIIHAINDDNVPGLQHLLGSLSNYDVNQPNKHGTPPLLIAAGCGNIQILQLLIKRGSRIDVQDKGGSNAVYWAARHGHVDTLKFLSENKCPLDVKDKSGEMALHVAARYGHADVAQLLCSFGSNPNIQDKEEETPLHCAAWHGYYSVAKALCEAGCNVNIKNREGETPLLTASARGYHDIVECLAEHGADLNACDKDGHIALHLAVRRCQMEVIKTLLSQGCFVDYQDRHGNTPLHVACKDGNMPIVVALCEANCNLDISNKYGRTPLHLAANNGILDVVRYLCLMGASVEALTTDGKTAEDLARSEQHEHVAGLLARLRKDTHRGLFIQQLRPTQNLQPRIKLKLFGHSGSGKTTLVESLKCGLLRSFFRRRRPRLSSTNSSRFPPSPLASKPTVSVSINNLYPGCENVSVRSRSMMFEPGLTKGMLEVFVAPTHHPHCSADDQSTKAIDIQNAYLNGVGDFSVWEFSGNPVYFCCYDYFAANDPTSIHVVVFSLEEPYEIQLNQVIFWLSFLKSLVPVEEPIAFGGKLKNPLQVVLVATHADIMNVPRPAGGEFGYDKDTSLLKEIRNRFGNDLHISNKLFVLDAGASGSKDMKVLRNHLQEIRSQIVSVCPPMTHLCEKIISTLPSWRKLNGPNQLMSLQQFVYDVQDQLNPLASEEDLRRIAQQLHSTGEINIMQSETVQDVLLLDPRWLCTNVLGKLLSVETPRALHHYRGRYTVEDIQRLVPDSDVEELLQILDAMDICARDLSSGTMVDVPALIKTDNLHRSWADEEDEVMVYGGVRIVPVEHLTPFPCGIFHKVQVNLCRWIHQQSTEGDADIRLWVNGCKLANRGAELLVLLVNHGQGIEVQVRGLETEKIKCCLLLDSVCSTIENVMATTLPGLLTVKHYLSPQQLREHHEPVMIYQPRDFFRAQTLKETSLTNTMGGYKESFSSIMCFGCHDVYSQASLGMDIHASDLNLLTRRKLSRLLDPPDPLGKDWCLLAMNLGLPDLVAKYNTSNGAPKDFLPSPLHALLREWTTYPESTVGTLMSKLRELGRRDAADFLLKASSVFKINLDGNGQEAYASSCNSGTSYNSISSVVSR
Excerpt: as §1

RIPK2, sequence (O43353 whole entry): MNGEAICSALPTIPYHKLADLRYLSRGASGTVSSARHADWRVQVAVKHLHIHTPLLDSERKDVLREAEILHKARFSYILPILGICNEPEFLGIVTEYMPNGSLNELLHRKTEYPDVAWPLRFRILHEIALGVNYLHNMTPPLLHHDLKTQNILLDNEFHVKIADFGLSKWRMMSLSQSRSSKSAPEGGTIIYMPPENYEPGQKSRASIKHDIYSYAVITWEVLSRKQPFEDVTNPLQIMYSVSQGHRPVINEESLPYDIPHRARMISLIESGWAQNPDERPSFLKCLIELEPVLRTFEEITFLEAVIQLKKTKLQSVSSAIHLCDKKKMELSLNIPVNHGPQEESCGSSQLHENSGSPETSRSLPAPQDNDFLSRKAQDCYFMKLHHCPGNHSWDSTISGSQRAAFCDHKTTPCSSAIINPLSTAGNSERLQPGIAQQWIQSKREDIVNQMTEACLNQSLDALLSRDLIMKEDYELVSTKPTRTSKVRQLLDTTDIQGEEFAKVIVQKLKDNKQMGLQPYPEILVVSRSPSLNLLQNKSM

Row | Structure (SMILES) | remaining activity at 1 µM (RIPK2; 1 µM) | remaining activity at 1 µM (ZAP70; 1 µM) | remaining activity at 1 µM (PINK) | remaining activity at 1 µM (Aurora B; 1 µM) | remaining activity at 1 µM (MNK2; 1 µM) | remaining activity at 1 µM (FGF-R1; 1 µM) | remaining activity at 1 µM (TGFBR1; 1 µM) | remaining activity at 1 µM (MKK2; 1 µM) | remaining activity at 1 µM (CK2; 1 µM) | remaining activity at 1 µM (MPSK1; 1 µM) | remaining activity at 1 µM (MLK1; 1 µM) | remaining activity at 1 µM (YES1; 1 µM) | remaining activity at 1 µM (TESK1; 1 µM) | remaining activity at 1 µM (MAP4K5; 1 µM) | remaining activity at 1 µM (CLK2; 1 µM) | remaining activity at 1 µM (DAPK1; 1 µM) | remaining activity at 1 µM (RIPK2) | remaining activity at 1 µM (ZAP70) | remaining activity at 1 µM (Aurora B) | remaining activity at 1 µM (MNK2) | also measured
1 | Cc1ccc(F)c(S(=O)(=O)Nc2ccc(-c3nc(OC[C@H]4CN(CCCCCCOCCOCCOCC(=O)N[C@H](C(=O)N5C[C@H](O)C[C@H]5C(=O)NCc5ccc(-c6scnc6C)cc5)C(C)(C)C)CCO4)c4cn[nH]c4n3)cc2)c1 [SGK3-PROTAC1] | 88% | 75% | 108% | 93% | 122% | 108% | 124% | 114% | 90% | 127% | 82% | 108% | 122% | 99% | 104% | 100% |  |  |  |  | 
2 | COc1ccc(Cl)c(S(=O)(=O)Nc2ccc(-c3nc(OC[C@H]4CNCCO4)c4c(C)n[nH]c4n3)cc2)c1 [290-R, reference compound] |  |  | 99% |  |  |  |  |  | 100% |  |  |  |  |  |  |  | 124% | 98% | 70% | 119% | remaining activity at 1 µM (FGF-R1): 104%; remaining activity at 1 µM (TGFBR1): 120%; remaining activity at 1 µM (MKK2): 41%; remaining activity at 1 µM (MPSK1): 82%; remaining activity at 1 µM (MLK1): 9%; remaining activity at 1 µM (YES1): 92%; remaining activity at 1 µM (TESK1): 77%; remaining activity at 1 µM (MAP4K5): 19%; remaining activity at 1 µM (CLK2): 88%; remaining activity at 1 µM (DAPK1): 87%
3 | Cc1ccc(F)c(S(=O)(=O)Nc2ccc(-c3nc(OC[C@H]4CN(CCCCCCOCCOCCOCC(=O)N[C@H](C(=O)N5C[C@@H](O)C[C@H]5C(=O)NCc5ccc(-c6scnc6C)cc5)C(C)(C)C)CCO4)c4cn[nH]c4n3)cc2)c1 [cisSGK3-PROTAC1] | 94% | 75% | 109% | 95% | 122% | 106% | 114% | 124% | 96% | 139% | 94% | 105% | 120% | 101% | 85% | 108% |  |  |  |  | 
4 | Cc1ccc(F)c(S(=O)(=O)Nc2ccc(-c3nc(OC[C@H]4CNCCO4)c4cn[nH]c4n3)cc2)c1 [308-R, reference compound] |  |  | 119% |  |  |  |  |  |  |  |  |  |  |  |  |  | 122% | 101% | 115% | 78% | remaining activity at 1 µM (FGF-R1): 115%; remaining activity at 1 µM (TGFBR1): 120%; remaining activity at 1 µM (MKK2): 80%; remaining activity at 1 µM (CK2): 103%; remaining activity at 1 µM (MPSK1): 116%; remaining activity at 1 µM (MLK1): 16%; remaining activity at 1 µM (YES1): 71%; remaining activity at 1 µM (TESK1): 69%; remaining activity at 1 µM (MAP4K5): 63%; remaining activity at 1 µM (CLK2): 104%; remaining activity at 1 µM (DAPK1): 91%
